Here are results for six compounds from ChEMBL document CHEMBL1151550, “High-affinity FKBP-12 ligands derived from (R)-()-carvone. Synthesis and evaluation of FK506 pyranose ring replacements” (Bioorg Med Chem Lett, 1995).

Peptidyl-prolyl cis-trans isomerase FKBP1A, sequence (P62942 whole entry): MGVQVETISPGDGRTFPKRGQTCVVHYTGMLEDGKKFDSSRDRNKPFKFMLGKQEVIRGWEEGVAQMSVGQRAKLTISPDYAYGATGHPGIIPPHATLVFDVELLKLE

The assay has as its target Peptidyl-prolyl cis-trans isomerase FKBP1A (Homo sapiens, UniProt P62942). The assay is described as follows: Inhibitory activity of compound against FK506 binding protein 12 was determined. The following applies: read-out: Ki app.
In the case of `COC[C@@H]1CC[C@@H](C)[C@](O)(C(=O)C(=O)N2CCCC[C@H]2C(=O)OCc2ccccc2)C1`, the Ki is 258 nM.
Consider `CC(C)[C@@H]1CC[C@@H](C)[C@](O)(C(=O)C(=O)N2CCCC[C@H]2C(=O)OCc2ccccc2)C1`, for which the Ki was found to be 210 nM.
For `COC(C=C(C)C)[C@@H]1CC[C@@H](C)[C@](O)(C(=O)C(=O)N2CCCC[C@H]2C(=O)OCc2ccccc2)C1` (stereo partly specified), the Ki stood at 68 nM.
Regarding `COC(C)[C@@H]1CC[C@@H](C)[C@](O)(C(=O)C(=O)N2CCCC[C@H]2C(=O)OCc2ccccc2)C1` (stereo partly specified), the Ki was 81 nM.
The value for `COC(CC(C)C)[C@@H]1CC[C@@H](C)[C@](O)(C(=O)C(=O)N2CCCC[C@H]2C(=O)OCc2ccccc2)C1` (stereo partly specified) was 2.8 nM.
`C/C=C\C(OC)[C@@H]1CC[C@@H](C)[C@](O)(C(=O)C(=O)N2CCCC[C@H]2C(=O)OCc2ccccc2)C1` (stereo partly specified): the Ki is 112 nM.
